Reference: US10370336B2, “Phenyl-cyanoquinolinone PDE9 inhibitors” (Merck Sharp & Dohme Corp., priority 2015, dated 2019)

Target: human PDE9 enzyme (PDE9A2) (Homo sapiens (Human), UniProt O76083)
Settings: read-out: PDE9 IMAP Ki; IMAP FP assay, FAM-cGMP substrate 50 nM, apparent inhibition constant
From the text: Dose-inhibition profiles for each compound were characterized by fitting the mP data to a four-parameter equation given below.

human PDE9 enzyme (PDE9A2), sequence (O76083 other isoform, or with tags, fused parts or gaps): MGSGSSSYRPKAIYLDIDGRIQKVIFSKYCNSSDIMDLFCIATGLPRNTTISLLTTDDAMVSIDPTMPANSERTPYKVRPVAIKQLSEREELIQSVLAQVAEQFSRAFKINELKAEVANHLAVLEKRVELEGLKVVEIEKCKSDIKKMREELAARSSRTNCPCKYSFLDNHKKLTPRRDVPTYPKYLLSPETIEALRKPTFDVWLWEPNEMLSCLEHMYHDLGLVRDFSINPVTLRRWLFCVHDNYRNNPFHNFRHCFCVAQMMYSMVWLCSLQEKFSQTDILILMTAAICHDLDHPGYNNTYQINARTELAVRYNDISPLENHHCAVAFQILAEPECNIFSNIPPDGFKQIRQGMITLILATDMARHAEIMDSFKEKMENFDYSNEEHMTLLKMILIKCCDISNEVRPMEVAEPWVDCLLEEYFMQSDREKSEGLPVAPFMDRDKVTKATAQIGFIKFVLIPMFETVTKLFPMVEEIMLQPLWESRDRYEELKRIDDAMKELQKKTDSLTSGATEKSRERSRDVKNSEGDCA

Cc1ccc(-c2c(C#N)c(=O)[nH]c3ccccc23)cc1 [Example 1-9, 2-oxo-4-(p-tolyl)-1H-quinoline-3-carbonitrile]
Ki: 8.9 nM
